Experimental data taken from US10501449B2 (priority 2018, dated 2019).
Read-outs that look alike come from different tables or passages of the source.

Assays:
hERG channels = hERG channels (Homo sapiens (Human), UniProt Q12809); experiment: hERG Manual Patch Clamp Assay; type: cell-based; details: human, HEK 293 cells stably expressing hERG channels, pH 7.4, 1 uM, read-out: hERG EP % Inh @ 1 uM
hROMK (human Kir1.1) [1] = target: T1, hROMK (human Kir1.1) (Homo sapiens (Human), UniProt P48048); experiment: cell-based; details: CHO T-Rex hROMK stable cell line; thallium flux; 10-point concentration response curve; read-out: Human ROMK Th Flux IC50
Description: Solutions and reagents: Thallium flux assay was performed using FluxOR kit (F10017, Life Technologies). Loading buffer, assay buffer and stimulus buffer were prepared using kit components. HBSS (Hank's balanced salt solution, Cat#14025-092) was purchased separately from Life Technologies.
To prepare 10 ml of loading buffer: 10 μl of FluxOR dye (reconstituted in DMSO) was first added to 100 μl of powerload concentrate and this mix along with 100 μl of Probenicid (100×) was then added to 9.79 ml of HBSS. Assay buffer (10 ml) was prepared by addition of 2 ml of FluxOR chloride free buffer (5×), 100 μl of Probenicid (100×), and 0.2 ml of Ouabain (13.77 mM) to 7.7 ml of deionized water. Stimulus buffer was composed of 15 mM Tl2SO4, 0.75 mM K2SO4 in FluxOR chloride free buffer (diluted to 1× using deionized water). The final concentration of Tl2SO4 and K2SO4 in the assay plate was 3 mM and 0.15 mM, respectively.
Plating and induction of cells: The CHO T-Rex hROMK (human Kir1.1) stable cell line was maintained in Ham's F12 media supplemented with 10% FBS, 1% Penicillin-Streptomycin, 500 μg/ml Zeocin and 10 μg/ml Blasticidin at 37° C. in a 5% CO2 incubator. One day before the experiment, the cells were dissociated by incubation with Versene solution (15040-066, Life Technologies) for 10 minutes at 37° C. followed by addition of growth media. The cell suspension was centrifuged at 1200 rpm for 5 min. After discarding the supernatant, the cells were resuspended in fresh growth media and cell concentration was determined using a hemocytometer. Next, 0.5 μg/ml of Doxycycline was added to the cell suspension to induce hROMK channel expression and 50 μl (10,000 cells/well) of cell suspension was added to each well of a poly-D lysine coated 384 well black, optically clear bottom plate (6007718, Perkin Elmer). The assay plate was kept at 37° C. in a 5% CO2 incubator.
Assay protocol: On the day of experiment, media was removed and loading buffer was added (30 μl/well) to the assay plate. The cells were incubated in the loading buffer for 30 minutes at 37° C. The loading buffer was then replaced by assay buffer (30 μl/well) followed by addition of test compounds or controls. The cells were incubated with compounds for 30 minutes and the plate was then mounted on FlexStation (Molecular Devices) for fluorescence read out with excitation and emission wavelengths at 488 and 525 nm, respectively. Each well was read for 90 sec at 2 sec interval and the stimulus buffer was added after 20 seconds of baseline recording. The final DMSO concentration was either 0.5 or 1% in the assay plate. Positive and negative controls were defined by addition of DMSO or 3 μM of a standard ROMK inhibitor, respectively, to the wells instead of a test compound.
A 10-point concentration response curve was used to estimate the IC50 value of test compounds.

hROMK (human Kir1.1) [2] = target: T1, hROMK (human Kir1.1); experiment: cell-based; type: cell-based; details: whole-cell manual patch clamp, CHO T-Rex hROMK stable cell line, voltage step to -120 mV, Ba2+-subtracted hROMK current; read-out: ROMK EP IC50
Description: ROMK Manual Patch Clamp Assay
Cell culture conditions: Cells were maintained in conditions similar to those for Thallium flux assay. hROMK channel expression was induced by adding 0.6 μg/ml of Doxycycline 16-24 hrs prior to the experiments. On the day of experiment, the cells were dissociated using Versene, resuspended in growth media and plated onto coverslips 15 minutes prior to use.
Electrophysiology: The coverslip plated with cells was placed in the experiment chamber perfused with bath solution composed of (in mM): 135 NaCl, 5 KCl, 2 CaCl2, 1 MgCl2, 10 HEPES, 5 Glucose (pH 7.4). Patch pipettes with resistance between 2-5 Megaohms, when filled with a solution containing (in mM): 135 KCl, 1 EGTA, 1 MgCl2, 10 HEPES, 2 Na2ATP (pH 7.3), were used to form gigaseals. The cells were voltage clamped at −75 mV in whole-cell configuration using an Axopatch 200b or Multiclamp 700b (Molecular Devices) amplifier controlled by pClamp Software (Molecular Devices). The current was recorded by applying a voltage step to −120 mV every 10 seconds. […] At the end of the experiment, the cells were perfused with bath solution containing 2 mM Ba^2+ to isolate the contribution of hROMK current.
Data analysis: Raw current values (5 traces each for control, different compound concentration and Ba^2+ treatment groups) were exported from Clampfit into Microsoft Excel where the current remaining after application of Ba^2+ was subtracted from raw current to obtain hROMK specific current.

T1 sequence (P48048 whole entry): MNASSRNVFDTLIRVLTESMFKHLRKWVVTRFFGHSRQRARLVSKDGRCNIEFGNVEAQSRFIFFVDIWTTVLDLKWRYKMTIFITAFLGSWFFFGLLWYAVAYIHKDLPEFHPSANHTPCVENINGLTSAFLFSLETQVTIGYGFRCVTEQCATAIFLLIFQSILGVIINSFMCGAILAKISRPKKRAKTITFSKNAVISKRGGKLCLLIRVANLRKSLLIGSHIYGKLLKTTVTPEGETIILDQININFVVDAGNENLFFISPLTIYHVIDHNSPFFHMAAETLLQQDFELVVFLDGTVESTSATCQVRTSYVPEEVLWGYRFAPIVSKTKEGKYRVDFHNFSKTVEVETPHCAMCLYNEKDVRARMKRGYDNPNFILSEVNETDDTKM
hERG channels, sequence (Q12809 whole entry): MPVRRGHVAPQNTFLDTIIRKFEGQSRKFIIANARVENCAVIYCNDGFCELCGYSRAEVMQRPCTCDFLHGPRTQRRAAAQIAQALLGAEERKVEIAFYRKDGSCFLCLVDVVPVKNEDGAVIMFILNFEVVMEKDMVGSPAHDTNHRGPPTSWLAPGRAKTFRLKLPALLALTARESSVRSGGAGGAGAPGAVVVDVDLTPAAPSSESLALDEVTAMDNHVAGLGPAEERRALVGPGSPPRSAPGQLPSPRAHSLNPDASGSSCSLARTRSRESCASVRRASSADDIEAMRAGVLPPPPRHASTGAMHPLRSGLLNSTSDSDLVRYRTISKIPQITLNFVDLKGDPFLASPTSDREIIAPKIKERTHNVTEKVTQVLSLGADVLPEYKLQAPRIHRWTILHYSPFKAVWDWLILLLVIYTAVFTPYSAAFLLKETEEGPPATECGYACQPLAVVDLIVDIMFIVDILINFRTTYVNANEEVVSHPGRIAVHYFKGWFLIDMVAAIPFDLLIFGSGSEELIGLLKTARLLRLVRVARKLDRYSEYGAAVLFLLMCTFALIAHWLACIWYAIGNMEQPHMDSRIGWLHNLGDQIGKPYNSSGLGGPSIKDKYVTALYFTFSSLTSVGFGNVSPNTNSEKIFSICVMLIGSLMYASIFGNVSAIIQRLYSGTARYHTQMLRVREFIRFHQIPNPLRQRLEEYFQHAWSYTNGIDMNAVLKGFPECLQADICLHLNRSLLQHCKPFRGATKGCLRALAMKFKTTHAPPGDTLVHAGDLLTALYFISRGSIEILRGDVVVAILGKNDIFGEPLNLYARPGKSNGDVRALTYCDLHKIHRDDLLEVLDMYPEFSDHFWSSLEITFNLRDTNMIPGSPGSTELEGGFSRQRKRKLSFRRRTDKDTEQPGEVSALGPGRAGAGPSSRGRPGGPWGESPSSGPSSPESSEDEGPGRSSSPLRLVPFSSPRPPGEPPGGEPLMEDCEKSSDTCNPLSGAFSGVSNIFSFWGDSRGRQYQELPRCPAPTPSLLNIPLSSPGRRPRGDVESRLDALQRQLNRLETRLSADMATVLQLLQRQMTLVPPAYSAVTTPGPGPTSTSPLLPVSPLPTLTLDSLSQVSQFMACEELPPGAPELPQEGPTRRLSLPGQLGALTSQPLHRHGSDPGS

| SMILES | inhibition at 1 µM (hERG channels) [%] | IC50 (hROMK (human Kir1.1) [1]) [nM] | IC50 (hROMK (human Kir1.1) [2]) [nM] |
| --- | --- | --- | --- |
| Cc1nccc(-n2cc(CN3C[C@@H](c4ccc5c(c4C)COC5=O)N[C@@H](C)C3)n(C)c2=O)n1 [Example 173-I, 3-methyl-4-(((3S,5R)-3-methyl-5-(4-methyl-1-oxo-1,3-dihdyroisobenzofuran-5-yl)piperazin-1-yl)methyl)-1-(2-methylpyrimidin-4-yl)-1,3-dihydro-2H-imidazol-2-one] | 4 | 55 | 21 |
| Cc1nc(-n2cnc(CN3C[C@@H](c4ccc5c(c4C)COC5=O)N[C@@H](C)C3)c2)ncc1C#N [Example 164-I, 4-methyl-2-(4-(((3S,5R)-3-methyl-5-(4-methyl-1-oxo-1,3-dihydroisobenzofuran-5-yl)piperazin-1-yl)methyl)-1H-imidazol-1-yl)pyrimidine-5-carbonitrile] | 6 | 31 | 30 |
| CCc1nn(-c2ncc(CN3CCN[C@H](c4ccc5c(c4C)COC5=O)C3)cn2)cc1C#N [Example 228-I, (R)-3-ethyl-1-(5-((3-(4-methyl-1-oxo-1,3-dihydroisobenzofuran-5-yl)piperazin-1-yl)methyl)pyrimidin-2-yl)-1H-pyrazole-4-carbonitrile] | 16 | 14 | 20 |
| COc1nc(-n2cc(CN3C[C@@H](c4ccc5c(c4C)COC5=O)N[C@@H](C)C3)nc2C)ncc1C#N [Example 167-I, 4-methoxy-2-(2-methyl-4-(((3S,5R)-3-methyl-5-(4-methyl-1-oxo-1,3-dihydroisobenzofuran-5-yl)piperazin-1-yl)methyl)-1H-imidazol-1-yl)pyrimidine-5-carbonitrile] | 11 | 26 | 18 |
| COc1nc(-n2cc(CN3C[C@@H](c4ccc5c(c4C)COC5=O)N[C@@H](C)C3)cn2)ncc1C#N [Example 99-I, 4-methoxy-2-(4-(((3S,5R)-3-methyl-5-(4-methyl-1-oxo-1,3-dihydroisobenzofur-an-5-yl)piperazin-1-yl)methyl)-1H-pyrazol-1-yl)pyrimidine-5-carbonitrile] | 9.6 | 33 | 29 |
| COc1nc(-n2ncc(CN3C[C@@H](c4ccc5c(c4C)COC5=O)N[C@@H](C)C3)n2)ncc1C#N [Example 166-I, 4-methoxy-2-(4-(((3S,5R)-3-methyl-5-(4-methyl-1-oxo-1,3-dihydroisobenzofuran-5-yl)piperazin-1-yl)methyl)-2H-1,2,3-triazol-2-yl)pyrimidine-5-carbonitrile] | 6 | 30 | 13 |
| Cc1cc(-n2cc(CN3CCN[C@H](c4ccc5c(c4C)COC5=O)C3)nn2)ncc1C#N [Example 23-I, (R)-4-methyl-6-(4-((3-(4-methyl-1-oxo-1,3-dihydroisobenzofuran-5-yl)piperazin-1-yl)methyl)-1H-1,2,3-triazol-1-yl)nicotinonitrile] | 12 | 30 | 4.9 |
| Cc1nc(-n2ncc(CN3C[C@@H](c4ccc5c(c4C)COC5=O)N[C@@H](C)C3)n2)ncc1C#N [Example 100-I, 4-methyl-2-(4-(((3S,5R)-3-methyl-5-(4-methyl-1-oxo-1,3-dihydroisobenzofur-an-5-yl)piperazin-1-yl)methyl)-2H-1,2,3-triazol-2-yl)pyrimidine-5-carbonitrile] | 3.6 | 40 | 25 |
| Cc1cc(-n2cc(CN3CC(C)O[C@H](c4ccc5c(c4C)COC5=O)C3)cn2)ncc1C#N (stereo partly drawn) [Example 240-I, 4-methyl-6-(4-(((6R)-2-methyl-6-(4-methyl-1-oxo-1,3-dihydroisobenzofuran-5-yl)morpholino)methyl)-1H-pyrazol-1-yl)nicotinonitrile] | 8.3 | 42 | 34 |
